This note sets out measurements from patent US9624279B2, “Method for producing insoluble aggregate of neurodegenerative-disease-related protein” (TOKYO METROPOLITAN INSTITUTE OF MEDICAL SCIENCE, priority 2011, dated 2017).

The subject of this assay is HA-TDP expressing cells. Put plainly: Suppression of insoluble TDP aggregate formation by candidate compounds (Western blot with anti-409/410 antibody, densitometer). The assay is classed as cell-based, human. As to conditions: 20 μM, ppt fraction after three days, compared with DMSO control as 100%; for suppressing effect against aggregate formation: added 6 hours after introduction of insoluble fraction from the brain of patient. As to the method: Two transfectants of (1) SH-SY5Y cells expressing human α-synuclein (hereinafter referred to as “αS expressing cells” for transfectants and “αS” for the human α-synuclein, respectively) and (2) SH-SY5Y cells expressing HA-tagged TAR DNA binding protein (hereinafter referred to as “HA-TDP expressing cells” for the SH-SY5Y cells and an “HA-TDP” HA-tagged TAR DNA binding protein, respectively) were prepared. In brief, a construct in which a polynucleotide encoding αS or HA-TDP was inserted into pcDNA3 vector were prepared (Ueda. K et al., Proc. Natl. Acad. Sci. U.S.A. 90: 11282 (1993), Ou. S H et al., J Virol. 3584: 394 (1995)). Mixture of the construct (1 μg), X-tremeGENE 9 DNA transfection reagent (Roche Diagnostics K.K.) (3 μL) and the OptiMEM (100 μL) was added to 30% to 50% confluent of the SH-SY5Y cells and incubated over night, then used in the following step of introduction of insoluble fraction.
An amount of sample for introduction per one well of the 6-well plate was added to the cell culture medium of one well, then the cultured cells was incubated for 6 hours. After the incubation, the medium was replaced with a flesh cell culture medium (2 mL) and the cultured cells were incubated for 3 days. Then, the cultured cells were used to perform the analysis by Western blotting and immunocytochemistry. If the cultured cells were not used immediately, the cultured cells were stored at −20° C.
The precipitate obtained in the preparation of TX fraction was suspended in a cell lysis buffer containing 1% N-sodium lauroyl sarcosinate, and incubated at 37° C. for 30 min. After ultrasonication treatment using VP-5S type device (Titech Corporation), the supernatant and precipitate were separated by ultracentrifugation (290,000×g, 20 min, 4° C.), the supernatant was used as Tris buffer soluble fraction containing N-sodium lauroyl sarcosinate (hereinafter referred to as “Sar fraction”). And also, the precipitate was used as insoluble fraction (hereinafter referred to as “ppt fraction”).
TS, TX, Sar and ppt fractions were used in the Western blotting by standard method well known to those skilled in the art. In brief, each fraction was separated by electrophoresis with 13.5% SDS-polyacrylamide gel, respectively. The separated proteins were transferred to a PVDF membrane, reacted with the following primary and secondary antibodies, and detected with an ECL Plus Western Blotting Detection System (GE Healthcare Japan Corporation) and an ImageQuant™ LAS 4000 mini (GE Healthcare Japan Corporation).
The harvest of samples, preparation of insoluble fractions from the brain samples, preparation of sample for introduction including the insoluble fractions, cell culturing, preparation of transfectants, introduction of insoluble fractions into the cultured cells and Western blotting were performed in accordance with the procedures similar to those in the example 3. In this example, the candidate compounds of therapeutic agent of neurodegenerative disease were added at final concentration of 20 μM at 6 hours after introduction of insoluble fraction originated from the brain of patient into HA-TDP expressing cells. […] In three days after the introduction of insoluble fraction from the brain of patient, the ppt fraction of HA-TDP expressing cells was recovered and used in Western blotting, and the amounts of the insoluble fractions were quantified with a densitometer. […]
For orientation: In western blotting, separated proteins are transferred to a membrane and probed.

Consider `O=C(c1cc(O)c(O)c(O)c1)c1ccc(O)c(O)c1O` [exifone], for which the “suppressing effect against aggregate formation” value (shortened to “suppressing effect”) was “did not have a suppressing effect”.

For the compound `O=c1c(O)c(-c2ccc(O)c(O)c2)oc2c(O)c(O)cc(O)c12` [gossypetin], the “suppressing effect” value was “had the suppressing effect” and the aggregate formation suppressed result was “approximately 40%”.

In the case of `O=C(O[C@@H]1Cc2c(O)cc(O)cc2O[C@@H]1c1ccc(O)c(O)c1)c1cc(O)c(O)c(O)c1` [epicatechin gallate, (−)-epicatechin gallate], the “suppressing effect” value is recorded as “had the suppressing effect”.

In the case of `O=c1c(O)c(-c2cc(O)c(O)c(O)c2)oc2cc(O)cc(O)c12` [myricetin], the “suppressing effect” value was “had the suppressing effect”.
